# From patent publication US8354407B2 (Boehringer Ingelheim International GmbH, priority 2006, dated 2013)
# Target: T1, full-length human PKCα enzyme (Homo sapiens, UniProt P17252)
# T1 construct: full-length human PKCα enzyme; purchased Upstate Biotechnology
# Test: Assessment of PKC-α Inhibitory Activity (MALDI-TOF kinase assay)
# Assay type: biochemical
# Details: full-length human PKCα 0.12 μg/ml; ATP 45 μM; neurogranin 28-43 peptide 22 μM; 30 minute incubation at 24° C.; MALDI-TOF MS readout
# Experimental: Measurement of PKCα enzyme activity is performed using full-length human PKCα enzyme (Upstate Biotechnology) at a final concentration of 0.12 μg/ml in a kinase assay buffer (0.09 mg/ml bovine serum albumin (BSA), 210 μM ethylenediaminetetraacetic acid (EDTA), 360 μM CaCl2, 1 mM Tris-HCl, pH=7.5, 0.5 mM MgCl2, 0.015 mg/ml phosphatidylserine and 0.015 mg/ml diacylglycerol). The reaction is initiated by addition of adenosine triphosphate (ATP; final concentration 45 μM) and a peptide substrate consisting of amino acids 28-43 (Ala-Ala-Lys-Ile-Gln-Ala-Ser-Phe-Arg-Gly-His-Met-Ala-Arg-Lys-Lys) of neurogranin (Promega; final concentration 22 μM). After a 30 minute incubation at 24° C. the reaction is terminated by adding 5 μL of the reaction mixture into 50 μL of MALDI matrix solution (5 mg/ml α-cyano-4-hydroxycinnamic acid in 50% Acetonitrile/H2O, 0.1% TFA, 5 mM ammonium phosphate). Two microliters of the stopped reaction mixture is transferred onto a MALDI-TOF mass spectrometer target plate.
# All spectra are collected on an Applied Biosystems 4700 Proteomics Analyzer MALDI-TOF MS equipped with a Nd:YAG laser (355 nm, 3 ns pulse width, 200 Hz repetition rate) in negative ion reflector mode. The system is operated with 4700 Explorer software, version 3.0. Automated acquisition parameters are adjusted to capture and average only those individual spectra within defined success criteria. Specifically, signal intensities for the substrate peptide are set to a minimum threshold of 3000 counts and a maximum intensity of 65,000 counts. This ensured that neither null spectra nor saturated spectra are averaged into the final readout. Between 1000 and 1500 laser shots are averaged for each sample. Data are collected in triplicate from 3 successive days to capture the maximum variability related to preparation of enzyme reaction, transfer of samples to MALDI target plates, data collection, and data extraction.
# The isotope cluster areas for each peptide substrate and product peaks are extracted into a Microsoft Excel worksheet from the 10×10 array of spectral data simultaneously using the automated analysis function provided within the 4700 Explore software. The isotope cluster area is defined by the software algorithm based on the molecular weight and the general elemental composition of the peptides. The percent conversion (% C) of substrate to product is calculated as the cluster area of the product (P) divided by the sum of the cluster areas of the substrate (S) and the product multiplied by 100 as represented by the following equation: […]
# For dose-dependent inhibition studies, the inhibition is plotted as a % Maximal Activity (% MA). Equation one is a measure of the ratio of product to substrate then solving for the % C. However, to measure inhibition of the enzyme activity, one must measure the degree to which that activity (% C) is curtailed. Thus the dose-dependant inhibition data is plotted as % MA where the maximal activity is the % C measured in control reactions with no inhibitor as represented by the following equation: […]
substance,measurement,value
"N^2-(3-Nitro-biphenyl-3-yl)-N^4-(3-morpholin-4-yl-propyl)-pyrimidine-2,4-diamine",IC50,0.182 µM
